# Experiments:
# FMDV 3Cpro [1] = biological target: T1, FMDV 3Cpro (Foot-and-mouth disease virus A, UniProt A0A097I315); assay: biochemical; design: species or system FMDV A/IND287/96 strain (serotype A); settings: FRET assay (IC50)
# FMDV 3Cpro [2] = biological target: T1, FMDV 3Cpro; assay: cell-based; design: species or system FMDV A/IND287/96 strain; settings: Cell-based assay (EC50)
# in vitro = settings: human
Compound,IC50 (FMDV 3Cpro [1]),EC50 (FMDV 3Cpro [2]),CC50 (in vitro)
CC(C)C[C@H](NC(=O)OC[C@@H]1C[C@H]1c1ccccc1)C(=O)N[C@H](C=O)C[C@H]1CCNC1=O [Compound C1c],1 ± 0.28 µM,3.15 ± 0.35 µM,> 50 µM
CC(C)C[C@H](NC(=O)OC[C@@H]1C[C@H]1c1ccccc1)C(=O)N[C@@H](C[C@H]1CCNC1=O)C(O)S(=O)(=O)O (some centres unmarked) [Compound C1d],0.75 ± 0.07 µM,3.25 ± 0.63 µM,> 50 µM
CC(C)C[C@H](NC(=O)OC[C@H]1[C@H](c2ccccc2)C1(F)F)C(=O)N[C@H](C=O)C[C@H]1CCNC1=O [Compound C2c],1.35 ± 0.64 µM,1.2 ± 0.14 µM,> 50 µM
CC(C)C[C@H](NC(=O)OC[C@H]1[C@H](c2ccccc2)C1(F)F)C(=O)N[C@@H](C[C@H]1CCNC1=O)C(O)S(=O)(=O)O (some centres unmarked) [Compound C2d],1.1 ± 0.57 µM,1.45 ± 0.21 µM,> 50 µM
CC(C)C[C@H](NC(=O)OC[C@@H]1C[C@H]1Cc1ccccc1)C(=O)N[C@H](C=O)C[C@H]1CCNC1=O [Compound C3c],0.69 ± 0.13 µM,2.74 ± 2.14 µM,> 50 µM
CC(C)C[C@H](NC(=O)OC[C@@H]1C[C@H]1Cc1ccccc1)C(=O)N[C@@H](C[C@H]1CCNC1=O)C(O)S(=O)(=O)O (some centres unmarked) [Compound C3d],0.8 ± 0.14 µM,4.02 ± 0.3 µM,> 50 µM
CC(C)C[C@H](NC(=O)OC[C@H]1[C@H](Cc2ccccc2)C1(F)F)C(=O)N[C@H](C=O)C[C@H]1CCNC1=O [Compound C4c],0.82 ± 0.15 µM,–,> 50 µM
CC(C)C[C@H](NC(=O)OC[C@H]1[C@H](Cc2ccccc2)C1(F)F)C(=O)N[C@@H](C[C@H]1CCNC1=O)C(O)S(=O)(=O)O (some centres unmarked) [Compound C4d],1.35 ± 0.35 µM,3.65 ± 0.63 µM,> 50 µM
CC(C)C[C@H](NC(=O)OC[C@@H]1C[C@H]1c1cccc(F)c1)C(=O)N[C@H](C=O)C[C@H]1CCNC1=O [Compound C5c],1.05 ± 0.21 µM,2.13 ± 0.49 µM,> 50 µM
CC(C)C[C@H](NC(=O)OC[C@@H]1C[C@H]1c1cccc(F)c1)C(=O)N[C@@H](C[C@H]1CCNC1=O)C(O)S(=O)(=O)O (some centres unmarked) [Compound C5d],0.95 ± 0.22 µM,1.89 ± 0.09 µM,> 50 µM
CC(C)C[C@H](NC(=O)OC[C@@H]1C[C@H]1c1cccc(Cl)c1)C(=O)N[C@H](C=O)C[C@H]1CCNC1=O [Compound C6c],0.8 ± 0.05 µM,3.3 ± 0.71 µM,> 50 µM
CC(C)C[C@H](NC(=O)OC[C@@H]1C[C@H]1c1cccc(Cl)c1)C(=O)N[C@@H](C[C@H]1CCNC1=O)C(O)S(=O)(=O)O (some centres unmarked) [Compound C6d],0.58 ± 0.11 µM,2.85 ± 0.49 µM,> 50 µM
CC(C)C[C@H](NC(=O)OC[C@@H]1C[C@H]1c1ccc(F)cc1)C(=O)N[C@H](C=O)C[C@H]1CCNC1=O [Compound C7c],0.59 ± 0.04 µM,2 ± 0.14 µM,> 50 µM
CC(C)C[C@H](NC(=O)OC[C@@H]1C[C@H]1c1ccc(F)cc1)C(=O)N[C@@H](C[C@H]1CCNC1=O)C(O)S(=O)(=O)O (some centres unmarked) [Compound C7d],0.75 ± 0.07 µM,2.15 ± 0.35 µM,> 50 µM
CC(C)C[C@H](NC(=O)OC[C@@H]1C[C@H]1c1ccc(Cl)cc1)C(=O)N[C@H](C=O)C[C@H]1CCNC1=O [Compound C8c],1.15 ± 0.08 µM,–,> 50 µM
CC(C)C[C@H](NC(=O)OC[C@@H]1C[C@H]1c1ccc(Cl)cc1)C(=O)N[C@@H](C[C@H]1CCNC1=O)C(O)S(=O)(=O)O (some centres unmarked) [Compound C8d],0.55 ± 0.07 µM,–,> 50 µM
COc1cccc([C@@H]2C[C@H]2COC(=O)N[C@@H](CC(C)C)C(=O)N[C@H](C=O)C[C@H]2CCNC2=O)c1 [Compound C9c],0.75 ± 0.14 µM,2.95 ± 0.28 µM,> 50 µM
COc1cccc([C@@H]2C[C@H]2COC(=O)N[C@@H](CC(C)C)C(=O)N[C@@H](C[C@H]2CCNC2=O)C(O)S(=O)(=O)O)c1 (some centres unmarked) [Compound C9d],0.84 ± 0.06 µM,2.05 ± 0.64 µM,> 50 µM
COc1ccc([C@@H]2C[C@H]2COC(=O)N[C@@H](CC(C)C)C(=O)N[C@H](C=O)C[C@H]2CCNC2=O)cc1 [Compound C10c],1.25 ± 0.07 µM,3.65 ± 1.48 µM,> 50 µM
COc1ccc([C@@H]2C[C@H]2COC(=O)N[C@@H](CC(C)C)C(=O)N[C@@H](C[C@H]2CCNC2=O)C(O)S(=O)(=O)O)cc1 (some centres unmarked) [Compound C10d],1.05 ± 0.21 µM,2.85 ± 1.55 µM,> 50 µM

Compound,IC50 (FMDV 3Cpro [1]),EC50 (FMDV 3Cpro [2]),CC50 (in vitro)
COc1ccccc1[C@@H]1C[C@H]1COC(=O)N[C@@H](CC(C)C)C(=O)N[C@H](C=O)C[C@H]1CCNC1=O [Compound C11c],0.95 ± 0.21 µM,1.08 ± 0.05 µM,> 50 µM
COc1ccccc1[C@@H]1C[C@H]1COC(=O)N[C@@H](CC(C)C)C(=O)N[C@@H](C[C@H]1CCNC1=O)C(O)S(=O)(=O)O (some centres unmarked) [Compound C11d],0.45 ± 0.13 µM,1.02 ± 0.17 µM,> 50 µM
COc1ccccc1[C@@H]1C[C@@H]1COC(=O)N[C@@H](CC(C)C)C(=O)N[C@H](C=O)C[C@H]1CCNC1=O [Compound C12c],0.5 ± 0.14 µM,0.88 ± 0.25 µM,> 50 µM
COc1ccccc1[C@@H]1C[C@@H]1COC(=O)N[C@@H](CC(C)C)C(=O)N[C@@H](C[C@H]1CCNC1=O)C(O)S(=O)(=O)O (some centres unmarked) [Compound C12d],0.51 ± 0.06 µM,1.25 ± 0.07 µM,> 50 µM
CCC[C@@H]1C[C@H]1COC(=O)N[C@@H](CC(C)C)C(=O)N[C@H](C=O)C[C@H]1CCNC1=O [Compound C13c],1.55 ± 0.07 µM,2.95 ± 0.21 µM,> 50 µM
CCC[C@@H]1C[C@H]1COC(=O)N[C@@H](CC(C)C)C(=O)N[C@@H](C[C@H]1CCNC1=O)C(O)S(=O)(=O)O (some centres unmarked) [Compound C13d],0.75 ± 0.07 µM,3.1 ± 0.42 µM,> 50 µM
CCC[C@@H]1C[C@@H]1COC(=O)N[C@@H](CC(C)C)C(=O)N[C@H](C=O)C[C@H]1CCNC1=O [Compound C14c],0.63 ± 0.1 µM,7.05 ± 0.78 µM,> 50 µM
CCC[C@@H]1C[C@@H]1COC(=O)N[C@@H](CC(C)C)C(=O)N[C@@H](C[C@H]1CCNC1=O)C(O)S(=O)(=O)O (some centres unmarked) [Compound C14d],1.05 ± 0.64 µM,6.3 ± 0.85 µM,> 50 µM
CC(C)C[C@H](NC(=O)OC[C@@H]1C[C@H]1C1CCCCC1)C(=O)N[C@H](C=O)C[C@H]1CCNC1=O [Compound C15c],0.38 ± 0.11 µM,0.45 ± 0.05 µM,> 50 µM
CC(C)C[C@H](NC(=O)OC[C@@H]1C[C@H]1C1CCCCC1)C(=O)N[C@@H](C[C@H]1CCNC1=O)C(O)S(=O)(=O)O (some centres unmarked) [Compound C15d],0.29 ± 0.08 µM,0.5 ± 0.11 µM,> 50 µM
CC(C)C[C@H](NC(=O)OC[C@@H]1C[C@H]1CC1CCCCC1)C(=O)N[C@H](C=O)C[C@H]1CCNC1=O [Compound C16c],0.36 ± 0.09 µM,0.9 ± 0.06 µM,> 50 µM
CC(C)C[C@H](NC(=O)OC[C@@H]1C[C@H]1CC1CCCCC1)C(=O)N[C@@H](C[C@H]1CCNC1=O)C(O)S(=O)(=O)O (some centres unmarked) [Compound C16d],0.33 ± 0.04 µM,1.21 ± 0.48 µM,> 50 µM
CC(C)C[C@H](NC(=O)OC[C@@H]1C[C@H]1C1CCC(F)(F)CC1)C(=O)N[C@H](C=O)C[C@H]1CCNC1=O [Compound C17c],0.65 ± 0.07 µM,> 10 µM,> 50 µM
CC(C)C[C@H](NC(=O)OCC(C)(C)Sc1cccc(F)c1)C(=O)N[C@@H](C[C@@H]1CCNC1=O)C(O)S(=O)(=O)O (some centres unmarked) [Compound D5d],0.81 ± 0.07 µM,–,> 50 µM
CC(C)C[C@H](NC(=O)OCC(C)(C)Oc1ccccc1)C(=O)N[C@H](C=O)C[C@@H]1CCNC1=O [Compound D10c],0.74 ± 0.08 µM,–,> 50 µM
CC(C)C[C@H](NC(=O)OCC(C)(C)Oc1ccccc1)C(=O)N[C@@H](C[C@@H]1CCNC1=O)C(O)S(=O)(=O)O (some centres unmarked) [Compound D10d],0.7 ± 0.28 µM,–,> 50 µM
CC(C)C[C@H](NC(=O)OCC(C)(O)c1cccc(Cl)c1)C(=O)N[C@H](C=O)C[C@@H]1CCNC1=O (some centres unmarked) [Compound D17c],2 ± 0.71 µM,–,> 50 µM
CC(C)C[C@H](NC(=O)OCC(C)(O)c1cccc(Cl)c1)C(=O)N[C@@H](C[C@@H]1CCNC1=O)C(O)S(=O)(=O)O (some centres unmarked) [Compound D17d],0.9 ± 0.28 µM,–,> 50 µM
CC(C)C[C@H](NC(=O)OCc1ccccc1)C(=O)N[C@@H](C[C@@H]1CCNC1=O)C(=O)C(=O)NC(C)C [Compound E6a],3.9 ± 0.2 µM,–,> 50 µM
CC(C)C[C@H](NC(=O)OCc1ccccc1)C(=O)N[C@@H](C[C@@H]1CCNC1=O)C(=O)C(=O)NC1CCCCC1 [Compound E6e],2.8 ± 0.1 µM,–,> 50 µM

# — paper PMC10986521 (Microbiology Spectrum, 2024)
